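96-well plates; 48 h exposure; 5 concentrations. Endpoints by linear interpolation between flanking doses. Not reached: highest tested concentration assigned. The concentration for full growth arrest is given as TGI.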 Where a SMILES comes first, the peptide text is derived from it. The star is where a group is joined. Boc = CC(C)(C)OC(=O)*
How the values were obtained:
Test in all cases: NCI tumour cell line growth inhibition, 48 h
MDA-MB-435 = system: MDA-MB-435
SF-539 CNS = system: SF-539 CNS
NCI/ADR-RES ovarian = system: NCI/ADR-RES ovarian
U251 CNS = system: U251 CNS
A549 NSCLC = system: A549 NSCLC
SK-MEL-28 melanoma = system: SK-MEL-28 melanoma
NCI-H226 lung = system: NCI-H226 lung
TK-10 renal = system: TK-10 renal
A498 renal = system: A498 renal
M14 melanoma = system: M14 melanoma
HCT-116 colon = system: HCT-116 colon
UACC-257 melanoma = system: UACC-257 melanoma
OVCAR-3 ovarian = system: OVCAR-3 ovarian
NCI-H522 lung = system: NCI-H522 lung
OVCAR-4 ovarian = system: OVCAR-4 ovarian
EKVX NSCLC = system: EKVX NSCLC
HCT-15 colon = system: HCT-15 colon
SF-268 CNS = system: SF-268 CNS
SR leukemia = system: SR leukemia
SNB-19 CNS = system: SNB-19 CNS
CAKI-1 renal = system: CAKI-1 renal
HS 578T breast = system: HS 578T breast
KM12 colon = system: KM12 colon
MDA-N = system: MDA-N
SNB-75 CNS = system: SNB-75 CNS
CCRF-CEM leukemia = system: CCRF-CEM leukemia
PC-3 prostate = system: PC-3 prostate
T-47D breast = system: T-47D breast
HOP-92 NSCLC = system: HOP-92 NSCLC
UACC-62 melanoma = system: UACC-62 melanoma
RPMI-8226 leukemia = system: RPMI-8226 leukemia
MALME-3M melanoma = system: MALME-3M melanoma
UO-31 renal = system: UO-31 renal
HOP-62 NSCLC = system: HOP-62 NSCLC
HT29 colon = system: HT29 colon
SN12C renal = system: SN12C renal
SK-MEL-2 melanoma = system: SK-MEL-2 melanoma
SK-MEL-5 melanoma = system: SK-MEL-5 melanoma
ACHN renal = system: ACHN renal
NCI-H460 lung = system: NCI-H460 lung
SF-295 CNS = system: SF-295 CNS
OVCAR-8 ovarian = system: OVCAR-8 ovarian
MOLT-4 leukemia = system: MOLT-4 leukemia
IGROV1 ovarian = system: IGROV1 ovarian
SW-620 colon = system: SW-620 colon
BT-549 breast = system: BT-549 breast
MCF7 breast = system: MCF7 breast
K-562 leukemia = system: K-562 leukemia
RXF 393 renal = system: RXF 393 renal
LOX IMVI melanoma = system: LOX IMVI melanoma
HL-60(TB) leukemia = system: HL-60(TB) leukemia
HCC-2998 colon = system: HCC-2998 colon
786-0 renal = system: 786-0 renal
SK-OV-3 ovarian = system: SK-OV-3 ovarian
DU-145 prostate = system: DU-145 prostate
NCI-H23 lung = system: NCI-H23 lung
MDA-MB-231 breast = system: MDA-MB-231 breast
COLO 205 colon = system: COLO 205 colon
OVCAR-5 ovarian = system: OVCAR-5 ovarian

With `CCOC(=O)C(CC(C)C)NC(=O)C(Cc1ccccc1)NC(=O)CNC(=O)OC(C)(C)C` (stereo not drawn) (Boc-Gly-Phe-Leu-OEt; configuration not given here) as the compound, how does the TGI (MDA-MB-435) read?
Its TGI is 34.4 µM.

What about the TGI (SF-539 CNS) of the same compound?
The TGI was 28.5 µM.

What about the TGI (NCI/ADR-RES ovarian) of the same compound?
The TGI was greater than 100 µM.

And the TGI (U251 CNS)?
The TGI was 31.9 µM.

What about the TGI (A549 NSCLC) of the same compound?
The TGI was 44.1 µM.

And the TGI (SK-MEL-28 melanoma)?
The TGI was 31.5 µM.

What about the TGI (NCI-H226 lung) of the same compound?
The TGI was 41 µM.

And the TGI (TK-10 renal)?
Its TGI is 97.8 µM.

What about the TGI (A498 renal) of the same compound?
Its TGI is 49.6 µM.

What about the TGI (M14 melanoma) of the same compound?
Its TGI is 40.2 µM.

What about the TGI (HCT-116 colon) of the same compound?
The TGI was 32.6 µM.

What about the TGI (UACC-257 melanoma) of the same compound?
The TGI was 36.3 µM.

And the TGI (OVCAR-3 ovarian)?
Its TGI is 34.4 µM.

And the TGI (NCI-H522 lung)?
Its TGI is 34.8 µM.

And the TGI (OVCAR-4 ovarian)?
Its TGI is 71.1 µM.

And the TGI (EKVX NSCLC)?
The TGI was 54.1 µM.

And the TGI (HCT-15 colon)?
The TGI was 35.8 µM.

And the TGI (SF-268 CNS)?
Its TGI is 43.3 µM.

And the TGI (SR leukemia)?
The TGI was 36.5 µM.

What about the TGI (SNB-19 CNS) of the same compound?
Its TGI is greater than 100 µM.

And the TGI (CAKI-1 renal)?
The TGI was 23.2 µM.

And the TGI (HS 578T breast)?
The TGI was 96 µM.

What about the TGI (KM12 colon) of the same compound?
The TGI was 37.5 µM.

What about the TGI (MDA-N) of the same compound?
The TGI was 28.4 µM.

And the TGI (SNB-75 CNS)?
Its TGI is 38.6 µM.

What about the TGI (CCRF-CEM leukemia) of the same compound?
The TGI was 41.3 µM.

What about the TGI (PC-3 prostate) of the same compound?
The TGI was 35.7 µM.

What about the TGI (T-47D breast) of the same compound?
Its TGI is 61 µM.

What about the TGI (HOP-92 NSCLC) of the same compound?
Its TGI is 64 µM.

And the TGI (UACC-62 melanoma)?
The TGI was 35.9 µM.

What about the TGI (RPMI-8226 leukemia) of the same compound?
Its TGI is 45.8 µM.

What about the TGI (MALME-3M melanoma) of the same compound?
The TGI was 39.4 µM.

And the TGI (UO-31 renal)?
The TGI was greater than 100 µM.

And the TGI (HOP-62 NSCLC)?
The TGI was 64 µM.

What about the TGI (HT29 colon) of the same compound?
Its TGI is 32.4 µM.

And the TGI (SN12C renal)?
Its TGI is 35.4 µM.

And the TGI (SK-MEL-2 melanoma)?
The TGI was 99.4 µM.

And the TGI (SK-MEL-5 melanoma)?
Its TGI is 36.8 µM.

And the TGI (ACHN renal)?
Its TGI is 30.8 µM.

What about the TGI (NCI-H460 lung) of the same compound?
The TGI was 26.6 µM.

What about the TGI (SF-295 CNS) of the same compound?
The TGI was 78.5 µM.

And the TGI (OVCAR-8 ovarian)?
The TGI was 46 µM.

What about the TGI (MOLT-4 leukemia) of the same compound?
Its TGI is 30.6 µM.

And the TGI (IGROV1 ovarian)?
Its TGI is 49 µM.

What about the TGI (SW-620 colon) of the same compound?
Its TGI is 39.9 µM.

And the TGI (BT-549 breast)?
Its TGI is 50.9 µM.

What about the TGI (MCF7 breast) of the same compound?
Its TGI is 17.3 µM.

And the TGI (K-562 leukemia)?
The TGI was 49 µM.

And the TGI (RXF 393 renal)?
Its TGI is 49 µM.

What about the TGI (LOX IMVI melanoma) of the same compound?
The TGI was 34.3 µM.

And the TGI (HL-60(TB) leukemia)?
Its TGI is 9.88 µM.

And the TGI (HCC-2998 colon)?
Its TGI is 37.2 µM.

What about the TGI (786-0 renal) of the same compound?
Its TGI is 36.9 µM.

And the TGI (SK-OV-3 ovarian)?
The TGI was 50.9 µM.

And the TGI (DU-145 prostate)?
The TGI was 43.6 µM.

What does the source list for `COC(=O)CNC(=O)Nc1cc(N2C(=O)ON3C2C(C)(C)N(O)C3(C)C)ccc1C` (centres undefined)?
TGI (MDA-MB-435): > 100 µM; TGI (SF-539 CNS): > 100 µM; TGI (NCI/ADR-RES ovarian): > 100 µM; TGI (U251 CNS): > 100 µM; TGI (A549 NSCLC): > 100 µM; TGI (NCI-H23 lung): > 100 µM; TGI (SK-MEL-28 melanoma): > 100 µM; TGI (NCI-H226 lung): > 100 µM; TGI (TK-10 renal): > 100 µM; TGI (M14 melanoma): > 100 µM; TGI (HCT-116 colon): > 100 µM; TGI (UACC-257 melanoma): > 100 µM; TGI (OVCAR-3 ovarian): > 100 µM; TGI (NCI-H522 lung): > 100 µM; TGI (OVCAR-4 ovarian): > 100 µM; TGI (EKVX NSCLC): > 100 µM; TGI (HCT-15 colon): > 100 µM; TGI (SF-268 CNS): > 100 µM; TGI (SR leukemia): > 100 µM; TGI (SNB-19 CNS): > 100 µM; TGI (CAKI-1 renal): > 100 µM; TGI (HS 578T breast): > 100 µM; TGI (KM12 colon): > 100 µM; TGI (MDA-N): > 100 µM; TGI (SNB-75 CNS): > 100 µM; TGI (CCRF-CEM leukemia): > 100 µM; TGI (PC-3 prostate): > 100 µM; TGI (T-47D breast): > 100 µM; TGI (MDA-MB-231 breast): > 100 µM; TGI (UACC-62 melanoma): > 100 µM; TGI (MALME-3M melanoma): > 100 µM; TGI (UO-31 renal): > 100 µM; TGI (HOP-62 NSCLC): > 100 µM; TGI (COLO 205 colon): > 100 µM; TGI (HT29 colon): > 100 µM; TGI (SN12C renal): > 100 µM; TGI (SK-MEL-2 melanoma): > 100 µM; TGI (SK-MEL-5 melanoma): > 100 µM; TGI (ACHN renal): > 100 µM; TGI (NCI-H460 lung): > 100 µM; TGI (SF-295 CNS): > 100 µM; TGI (OVCAR-8 ovarian): > 100 µM; TGI (MOLT-4 leukemia): > 100 µM; TGI (IGROV1 ovarian): > 100 µM; TGI (SW-620 colon): > 100 µM; TGI (BT-549 breast): > 100 µM; TGI (OVCAR-5 ovarian): > 100 µM; TGI (MCF7 breast): > 100 µM; TGI (K-562 leukemia): > 100 µM; TGI (RXF 393 renal): > 100 µM; TGI (LOX IMVI melanoma): > 100 µM; TGI (HCC-2998 colon): > 100 µM; TGI (786-0 renal): > 100 µM; TGI (SK-OV-3 ovarian): > 100 µM

Reference: PubChem BioAssay (NCI)
